Source: paper PMC4607890, “The identification of novel Mycobacterium tuberculosis DHFR inhibitors and the investigation of their binding preferences by using molecular modelling” (Scientific Reports, 2015)

Tests used:
mt-DHFR = target: T1, mt-DHFR (Mycobacterium tuberculosis, UniProt P9WNX1); experiment: biochemical; format: biochemical; conditions: for Ratio h-DHFR/mt-DHFR: ratio of IC50 values; for potency on mt-DHFR compared to h-DHFR: in vitro enzyme assays
T1 construct: made in house

h-DHFR = target: T2, h-DHFR (Homo sapiens, UniProt P00374); experiment: in vitro enzyme assay, recombinant h-DHFR (NADPH oxidation at 340 nm); format: biochemical; conditions: recombinant enzyme 20 nM, 40 μM NADPH, 40 μM dihydrofolate, pH 7.0, 25 °C
T2 construct: made in house
T2 sequence (P00374 1-187): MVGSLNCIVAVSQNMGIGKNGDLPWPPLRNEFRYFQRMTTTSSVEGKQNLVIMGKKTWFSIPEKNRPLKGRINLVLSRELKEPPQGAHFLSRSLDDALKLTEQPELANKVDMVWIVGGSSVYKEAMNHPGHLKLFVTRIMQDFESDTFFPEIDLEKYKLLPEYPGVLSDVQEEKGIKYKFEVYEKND

[1] = system: M. tuberculosis H37Ra (ATCC 25177); experiment: Microbroth culture for bacteriostatic and bactericidal activity (OD readings, subculture on 7H10 agar); format: cell-based, Mycobacterium tuberculosis; conditions: Mtb H37Ra; for growth inhibition on the test strain: overall
Procedure: The anti-mycobacterial activity of the compounds was tested by the measurement of OD readings and agar plate cultures. The test strain used was a stock culture of M. tuberculosis H37Ra (ATCC 25177) stored at −80 °C. Prior to testing, the stock culture was thawed and grown on Middlebrook 7H10 agar (Difco, USA) to check for viability and purity. To prepare the inoculum, a suspension of the culture in Middlebrook 7H9 broth (Difco, USA) was adjusted to a turbidity equivalent to McFarland standard no.1 and further diluted to a final concentration of approximately 10^5 cfu/ml. The compounds were dissolved in DMSO and diluted in 1% DMSO in 7H9 broth to obtain 100 μg/ml, 50 μg/ml, 10 μg/ml, 5 μg/ml 1 μg/ml and 0.1 μg/ml of compound. Each dilution was pipetted in 150 μl duplicates into a sterile 96-well microtitre plate. Three controls were set up with (a) 1% DMSO in 7H9 broth (b) 7H9 broth without DMSO and (c) p-amino salicylic acid (PAS) at 4 μg/ml (26.12 μM) in 7H9 broth with 1% DMSO. All wells were then inoculated with 10 μl of the mycobacterial culture at 10^5 cfu/ml, sealed with parafilm and incubated at 36 °C for 28 days. OD readings (at 630 nm wavelength) were taken daily using TECAN spectrophotometer with Magellan software version 7.1. In addition, on day 14 and day 28, 10 μl was removed from each well for subculturing on compound-free 7H10 agar plates which were incubated up to six weeks at 36 °C. The number, size and time of appearance of colonies in each subculture was recorded. A random sample of colonies was stained for acid-fastness to exclude non-mycobacterial contamination. […] Compounds showing less increase in OD readings than the no-compound controls but positive growth in the subcultures were deemed to have bacteriostatic activity.

mt-DHFR against h-DHFR = system: mt-DHFR against h-DHFR; design: method as in PMID 17451962; conditions: TB5 Saccharomyces cerevisiae carrying DHFR genes; cited from earlier work
[2] = system: human DHFR (h-DHFR) and mt-DHFR; conditions: cited from earlier work
[3] = compound concentration 0.1 μg/ml
[4] = compound concentration 10 μg/ml
[5] = compound concentration 50 μg/ml
[6] = compound concentration 100 μg/ml

T1 sequence (P9WNX1 whole entry): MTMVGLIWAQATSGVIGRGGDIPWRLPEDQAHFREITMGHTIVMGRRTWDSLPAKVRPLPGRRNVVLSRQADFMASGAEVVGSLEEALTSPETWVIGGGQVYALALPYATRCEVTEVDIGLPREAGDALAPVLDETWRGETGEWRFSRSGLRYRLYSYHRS

Nc1nc(N)c(-c2ccc(Cl)c(Cl)c2)c(COc2ccc([N+](=O)[O-])cc2)n1 [Compound 1]
IC50 (mt-DHFR): 130 nM
Ratio h-DHFR/mt-DHFR (mt-DHFR): 1
IC50 (h-DHFR): 130 nM
colony counts after four weeks of exposure [1, 3]: +++
colony counts after four weeks of exposure ([1]; compound concentration 1 μg/ml): +++
colony counts after four weeks of exposure ([1]; compound concentration 5 μg/ml): +++
colony counts after four weeks of exposure [1, 4]: +++
colony counts after four weeks of exposure [1, 5]: +++
colony counts after four weeks of exposure [1, 6]: +++

Nc1nc(N)c(-c2ccc(Cl)c(Cl)c2)c(COc2cccc3ccccc23)n1 [Compound 2]
IC50 (mt-DHFR): 110 nM
Ratio h-DHFR/mt-DHFR (mt-DHFR): 0.64
IC50 (h-DHFR): 70 nM
colony counts after four weeks of exposure [1, 3]: +++
colony counts after four weeks of exposure ([1]; compound concentration 1 μg/ml): +++
colony counts after four weeks of exposure ([1]; compound concentration 5 μg/ml): +++
colony counts after four weeks of exposure [1, 4]: +++
colony counts after four weeks of exposure [1, 5]: ++ (++, 11–100 colonies)
colony counts after four weeks of exposure [1, 6]: ++ (++, 11–100 colonies)

Nc1nc(N)c(-c2cccc(C(F)(F)F)c2)c(Cc2cccc(C(F)(F)F)c2)n1 [Compound 3]
IC50 (mt-DHFR): 180 nM
Ratio h-DHFR/mt-DHFR (mt-DHFR): 0.75
IC50 (h-DHFR): 135 nM
colony counts after four weeks of exposure [1, 3]: +++
colony counts after four weeks of exposure ([1]; compound concentration 1 μg/ml): +++
colony counts after four weeks of exposure ([1]; compound concentration 5 μg/ml): +++
colony counts after four weeks of exposure [1, 4]: +++
colony counts after four weeks of exposure [1, 5]: ++ (++, 11–100 colonies)
colony counts after four weeks of exposure [1, 6]: + (+, 1–10 colonies)

Nc1ccc(C(=O)Nc2ccc(OCc3nc(N)nc(N)c3-c3ccc(Cl)cc3)cc2)cc1 [Compound 4]
IC50 (mt-DHFR): 2600 nM
Ratio h-DHFR/mt-DHFR (mt-DHFR): 0.96
IC50 (h-DHFR): 2500 nM
activity compared with PAS (4 μg/ml) ([1]; 100 μg/ml): better activity than PAS
bactericidal activity ([1]; 100 μg/ml): bactericidal activity
colony counts after four weeks of exposure [1, 3]: +++
colony counts after four weeks of exposure ([1]; compound concentration 1 μg/ml): +++
colony counts after four weeks of exposure ([1]; compound concentration 5 μg/ml): +++
colony counts after four weeks of exposure [1, 4]: +++
colony counts after four weeks of exposure [1, 5]: ++ (++, 11–100 colonies)

CC(=O)Nc1cccc(OCc2cccc(N3C(=N)NC(=N)NC3(C)C)c2)c1 [Compound 5]
colony counts after four weeks of exposure [1, 3]: +++
colony counts after four weeks of exposure ([1]; compound concentration 1 μg/ml): +++
colony counts after four weeks of exposure ([1]; compound concentration 5 μg/ml): +++
colony counts after four weeks of exposure [1, 4]: +++
colony counts after four weeks of exposure [1, 5]: +++
colony counts after four weeks of exposure [1, 6]: +++

Nc1nc(N)c2c(ccc3c2ccn3Cc2cccc([N+](=O)[O-])c2)n1 [Compound 6]
IC50 (mt-DHFR): 6 nM
inhibition of mt-DHFR (mt-DHFR; in vitro enzyme assay): most potent inhibitor of mt-DHFR
potency on mt-DHFR compared to h-DHFR (mt-DHFR): more potent inhibitors of mt-DHFR compared to h-DHFR
Ratio h-DHFR/mt-DHFR (mt-DHFR): 5.5
IC50 (h-DHFR): 33 nM
activity compared with PAS (4 μg/ml, 26.12 μM) ([1]; 10 μg/ml (25.37 μM)): same activity as PAS
colony count ([1]; 10 μg/ml (25.37 μM)): notable reduction in colony count
bactericidal activity ([1]; 50 μg/ml): bactericidal
activity compared with PAS (4 μg/ml) ([1]; 100 μg/ml): better activity than PAS
bactericidal activity ([1]; 100 μg/ml): bactericidal activity
colony counts after four weeks of exposure [1, 3]: +++
colony counts after four weeks of exposure ([1]; compound concentration 1 μg/ml): +++
colony counts after four weeks of exposure ([1]; compound concentration 5 μg/ml): +++
colony counts after four weeks of exposure [1, 4]: ++ (++, 11–100 colonies)
growth inhibition on the test strain [1]: strongest bactericidal activity

Nc1nc(N)c2cc(S(=O)(=O)c3ccc(Cl)cc3)ccc2n1 [Compound 7]
IC50 (mt-DHFR): 63 nM
potency on mt-DHFR compared to h-DHFR (mt-DHFR): more potent inhibitors of mt-DHFR compared to h-DHFR
Ratio h-DHFR/mt-DHFR (mt-DHFR): 6.98
IC50 (h-DHFR): 440 nM
colony counts after four weeks of exposure [1, 3]: +++
colony counts after four weeks of exposure ([1]; compound concentration 1 μg/ml): +++
colony counts after four weeks of exposure ([1]; compound concentration 5 μg/ml): +++
colony counts after four weeks of exposure [1, 4]: +++
colony counts after four weeks of exposure [1, 5]: +++
colony counts after four weeks of exposure [1, 6]: +++
growth inhibition on the test strain [1]: least growth inhibition, affecting the colony size but not the colony count

Nc1nc(N)c2cc(Sc3ccc(Cl)cc3)ccc2n1 [Compound 8]
IC50 (mt-DHFR): 40 nM
potency on mt-DHFR compared to h-DHFR (mt-DHFR): more potent inhibitors of mt-DHFR compared to h-DHFR
Ratio h-DHFR/mt-DHFR (mt-DHFR): 2.5
IC50 (h-DHFR): 100 nM
activity compared with PAS (4 μg/ml) ([1]; 100 μg/ml): better activity than PAS
bactericidal activity ([1]; 100 μg/ml): bactericidal activity
growth in the 14-day subculture ([1]; after exposure to 50 μg/ml): did not grow
growth in the 28-day subculture ([1]; after exposure to 50 μg/ml): formed abundant colonies
colony counts after four weeks of exposure [1, 3]: +++
colony counts after four weeks of exposure ([1]; compound concentration 1 μg/ml): +++
colony counts after four weeks of exposure ([1]; compound concentration 5 μg/ml): +++
colony counts after four weeks of exposure [1, 4]: +++
colony counts after four weeks of exposure [1, 5]: +++

Nc1nc(N)c(-c2ccccc2)c(CC[C@@H](O)[C@@H](O)CO)n1 [El-7a]
selectivity for inhibition effects on mt-DHFR against h-DHFR (mt-DHFR against h-DHFR): notable selectivity

CN(Cc1cnc2nc(N)nc(N)c2n1)c1ccc(C(=O)N[C@@H](CCC(=O)O)C(=O)O)cc1 [MTX, Methotrexate]
selectivity of binding h-DHFR vs mt-DHFR [2]: without any significant selectivity

Nc1ccc(C(=O)O)c(O)c1 [PAS, p-amino salicylic acid, reference compound]
delay in the appearance of colonies ([1]; PAS 4 μg/ml (26.12 μM)): two-week delay
growth of colonies on 7H10 agar ([1]; PAS 4 μg/ml (26.12 μM)): only scanty growth
reduction in growth ([1]; PAS 4 μg/ml (26.12 μM)): more than two-log reduction in growth
colony counts after four weeks of exposure ([1]; PAS control at 4 μg/ml (26.12 μM)): ++ (++, 11–100 colonies)
